Where two headings read alike, the source gives them in different places.
Assays:
[1] = biological target: Beta Secretase enzyme (BACE) (Homo sapiens, UniProt P56817); test: In vitro enzymatic BACE FRET (fluorescence resonance energy transfer) assay; assay type: biochemical;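 also: fluorescence read after 1 h with 50 nM quenched peptide substrate spanning the BACE cleavage site, in pH 4.2 acetate buffer containing 10% DMSO and nonionic detergent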
[2] = tested on: Aβ40 in conditioned medium of cells stably expressing Amyloid Precursor Protein (APP); test: In vitro BACE cell-based assay (Aβ40 in conditioned medium, sandwich ELISA); conditions: Homo sapiens;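 also: compounds added as a dilution series, secreted peptide quantified by europium time-resolved fluorescence readout, potency fitted from percent of control versus compound concentration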
[3] = biological target: CYP3A4 (CYP3A) (Homo sapiens, UniProt P08684); test: in vitro; conditions: microsomes, pH 7.4;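 also: inhibition of CYP3A-mediated 1-hydroxymidazolam formation after 10 min incubation with NADPH, quantified by HPLC MS relative to metabolite produced without test compound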
[4] = Microsomal stability assay, rat liver microsomes;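 also: rat liver microsomes (0.25 mg/mL) with about 1 µM compound plus 1 mM NADPH, pH 7.4, 37 °C for 30 min, parent left measured by LC-MS/MS against 0 min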
[5] = Microsomal stability assay, human liver microsomes;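 also: pooled human liver microsomes at 0.25 mg/mL with 1 µM compound and NADPH at 37 °C, pH 7.4, for 30 min, unchanged parent quantified by LC-MS/MS against the 0 min sample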
[6] = biological target: CYP2D6 (Homo sapiens, UniProt P10635); test: CYP2D6 inhibition assay (bufuralol, pooled human liver microsomes)
[7] = BACE enzyme assay, IC50's in uM, read-out: BACE1 FRET assay
[8] = HEK293, HEK cell-based assay, IC50's in uM, read-out: HEK cell assay
[9] = 2D6 IC50 (uM), CYP enzyme inhibition
[10] = BACE enzyme assay IC50, read-out: BACE1 FRET assay
[11] = HEK293, HEK cell-based assay IC50, read-out: HEK cell assay
[12] = 2D6 IC50 (uM), CYP2D6 inhibition
[13] = read-out: BACE1 FRET assay (IC50)
[14] = HEK293, HEK cells, read-out: HEK cell assay (IC50)
[15] = BACE enzyme assay, read-out: BACE1 FRET assay
[16] = HEK293, HEK cells, read-out: HEK cell assay

Chain of CYP2D6 (P10635 whole entry): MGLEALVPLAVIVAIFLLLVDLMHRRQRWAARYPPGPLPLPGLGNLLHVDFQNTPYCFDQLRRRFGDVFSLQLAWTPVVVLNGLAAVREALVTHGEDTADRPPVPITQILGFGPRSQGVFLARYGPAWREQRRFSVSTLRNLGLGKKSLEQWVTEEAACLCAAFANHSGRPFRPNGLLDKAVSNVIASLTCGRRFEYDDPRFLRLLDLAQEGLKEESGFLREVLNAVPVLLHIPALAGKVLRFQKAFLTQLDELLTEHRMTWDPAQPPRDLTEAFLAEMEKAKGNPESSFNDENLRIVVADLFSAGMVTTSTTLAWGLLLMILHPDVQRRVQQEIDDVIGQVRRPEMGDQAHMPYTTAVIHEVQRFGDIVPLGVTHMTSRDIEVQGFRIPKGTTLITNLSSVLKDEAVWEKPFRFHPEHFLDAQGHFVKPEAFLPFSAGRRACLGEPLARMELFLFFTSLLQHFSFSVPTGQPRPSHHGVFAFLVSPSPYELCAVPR
Chain of Beta Secretase enzyme (BACE) (P56817 46-501): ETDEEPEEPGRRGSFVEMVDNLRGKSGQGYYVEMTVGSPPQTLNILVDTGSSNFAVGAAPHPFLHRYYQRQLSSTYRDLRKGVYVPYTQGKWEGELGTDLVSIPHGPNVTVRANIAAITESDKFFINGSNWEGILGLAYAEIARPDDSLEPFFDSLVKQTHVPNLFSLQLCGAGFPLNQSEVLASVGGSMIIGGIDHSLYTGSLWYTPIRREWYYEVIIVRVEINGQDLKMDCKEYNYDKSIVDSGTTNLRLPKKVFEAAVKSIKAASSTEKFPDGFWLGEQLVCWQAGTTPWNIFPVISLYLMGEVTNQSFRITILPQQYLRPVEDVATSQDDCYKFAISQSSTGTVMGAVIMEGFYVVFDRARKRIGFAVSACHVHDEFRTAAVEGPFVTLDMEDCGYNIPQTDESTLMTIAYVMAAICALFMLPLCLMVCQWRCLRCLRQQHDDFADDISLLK
Chain of CYP3A4 (CYP3A) (P08684 2-503): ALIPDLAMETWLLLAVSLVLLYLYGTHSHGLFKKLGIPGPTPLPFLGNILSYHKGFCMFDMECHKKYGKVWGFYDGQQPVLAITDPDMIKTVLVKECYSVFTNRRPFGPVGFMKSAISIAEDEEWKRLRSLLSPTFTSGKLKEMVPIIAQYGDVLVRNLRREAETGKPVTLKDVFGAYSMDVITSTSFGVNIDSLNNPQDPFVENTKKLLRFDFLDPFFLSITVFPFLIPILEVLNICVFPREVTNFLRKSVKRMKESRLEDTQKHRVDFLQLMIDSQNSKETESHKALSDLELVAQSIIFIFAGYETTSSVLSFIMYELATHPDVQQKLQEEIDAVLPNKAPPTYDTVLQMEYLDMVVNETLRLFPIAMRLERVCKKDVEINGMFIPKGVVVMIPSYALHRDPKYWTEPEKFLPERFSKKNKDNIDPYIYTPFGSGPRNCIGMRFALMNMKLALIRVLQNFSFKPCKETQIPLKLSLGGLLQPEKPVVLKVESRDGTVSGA

Compound | IC50 [3] [µM] | RLM ([4]; rat liver microsomal data) [µL/min/mg] | HLM ([5]; human liver microsomal data) [µL/min/mg] | IC50 [6, 9] [µM] | RLM ([4]; rat liver microsomes) [µL/min/mg] | HLM ([5]; human liver microsomes) [µL/min/mg] | IC50 [1, 15] [µM] | IC50 [2, 16] [µM] | further results
COCC(=O)N[C@@H](Cc1cc(F)cc(-c2nccs2)c1)[C@H](O)CN[C@H]1CC2(CCC2)Oc2ncc([C@@H]3CC3(C)C)cc21 [Example 773, N-((1S,2R)-3-(((4′S)-6′-((1R)-2,2-dimethylcyclopropyl)-3′,4′-dihydrospiro[cyclobutane-1,2′-pyrano[2,3-b]pyridin]-4′-yl)amino)-1-(3-fluoro-5-(1,3-thiazol-2-yl)benzyl)-2-hydroxypropyl)-2-methoxyacetamide] | 0.3 | 67 | 62 | 0.3 | – | – | – | – | IC50 [1, 7]: 0.003 µM; IC50 [2, 8]: 0.006 µM
CCC(=O)N[C@@H](Cc1cc(F)cc(-c2nccs2)c1)[C@H](O)CN[C@H]1CC2(CCC2)Oc2ncc(CC(C)(C)C)cc21 [compound 860] | 0.2 | 69 | 62 | – | – | – | – | – | IC50 [1, 7]: 0.004 µM; IC50 ([2]; HEK293, cell-based assay, HEK cells, IC50's in uM, read-out: HEK cell assay): 0.015 µM; IC50 ([6]; 2D6 IC50, CYP enzyme inhibition): 0.3 µM
COCC(=O)N[C@@H](Cc1cccc(F)c1)[C@H](O)CN[C@H]1CC2(CCC2)Oc2nc3c(cc21)[C@H](C(C)C)CO3 [compound 763] | 2 | 399 | 399 | 2 | – | – | – | – | IC50 [1, 7]: 2.5 µM; IC50 [2, 8]: 1.3 µM
CCC(=O)N[C@@H](Cc1ccc2c(c1)OCO2)[C@H](O)CN[C@H]1CC2(CCC2)Oc2ncc(CC(C)C)cc21 [compound 726, N-((1S,2R)-1-(1,3-benzodioxol-5-ylmethyl)-2-hydroxy-3-(((4′S)-6′-(2-methylpropyl)-3′,4′-dihydrospiro[cyclobutane-1,2′-pyrano[2,3-b]pyridin]-4′-yl)amino)propyl)propanamide] | ≤ 0.03 | – | – | – | 173 | 34 | – | – | IC50 [1, 10]: 0.044 µM; IC50 [2, 11]: 0.048 µM; IC50 [6, 12]: 1.4 µM
CO[C@H](C)C(=O)N[C@@H](Cc1ccccc1)[C@H](O)CN[C@H]1CC2(CCC2)Oc2c(-c3cncn3C)cc(CC(C)C)cc21 [compound 634] | 0.1 | – | – | – | 340 | 50 | – | – | IC50 [1, 13]: 0.126 µM; IC50 [2, 14]: 0.014 µM; IC50 ([6]; 2D6 IC50, CYP2D6 inhibition): 4.5 µM
CO[C@H](C)C(=O)N[C@@H](Cc1cncs1)[C@H](O)CN[C@H]1CC2(CCC2)Oc2ncc([C@@H]3CC3(C)C)cc21 [compound 794] | 0.5 | 132 | 205 | 9.8 | – | – | – | – | IC50 [1, 7]: 0.005 µM; IC50 [2, 8]: 0.009 µM
COCC(=O)N[C@@H](Cc1ccccc1)[C@H](O)CN[C@H]1CC2(CCC2)Oc2c(Br)cc(CC(C)C)cc21 [compound 544] | 1.8 | 662 | 399 | 7 | – | – | 0.005 | 0.937 | –
CO[C@H](C)C(=O)N[C@@H](Cc1ccc2c(c1)OCO2)[C@H](O)CN[C@H]1CC2(CCC2)Oc2ccc(C[C@@H](C)F)cc21 [compound 556] | 0.3 | 353 | 211 | 1 | – | – | 0.718 | 0.446 | –
C#Cc1cnc2c(c1)[C@@H](NC[C@@H](O)[C@H](Cc1cc(F)cc(-c3nccs3)c1)NC(=O)COC)CC1(CCC1)O2 [compound 766] | 0.2 | 64 | 70 | 1.4 | – | – | – | – | IC50 [1, 7]: 0.055 µM; IC50 [2, 8]: 0.272 µM
COCC(=O)N[C@@H](Cc1cc(F)cc(F)c1)[C@H](O)CN[C@H]1CC2(CCC2)Oc2c1cc(CC(C)C)nc2-c1nccn1C [compound 714] | ≤ 0.03 | – | – | – | 43 | 20 | – | – | IC50 [1, 10]: 0.016 µM; IC50 [2, 11]: 0.017 µM; IC50 [6, 12]: 2.2 µM
CO[C@H](C)C(=O)N[C@@H](Cc1ccc2c(c1)OCO2)[C@H](O)CN[C@H]1CC2(CCC2)Oc2ncc(CC(C)(C)F)cc21 [compound 741] | ≤ 0.03 | – | – | – | 76 | 25 | – | – | IC50 [1, 10]: 0.352 µM; IC50 [2, 11]: 0.329 µM; IC50 [6, 12]: 5 µM
CNc1nc(CC(C)C)cc2c1OC1(CCC1)C[C@@H]2NC[C@@H](O)[C@H](Cc1ccc2c(c1)OCO2)NC(=O)COC [compound 681] | 0.8 | – | – | – | 392 | 197 | – | – | IC50 [1, 10]: 0.064 µM; IC50 [2, 11]: 0.014 µM; IC50 [6, 12]: 9.2 µM
CO[C@H](C)C(=O)N[C@@H](Cc1ccccc1)[C@H](O)CN[C@H]1CC2(CCC2)Oc2c1cc(CC(C)C)cc2-n1ccnc1 [compound 547] | 0.1 | 260 | 53 | 4.4 | – | – | 0.042 | 0.073 | –
COCC(=O)N[C@@H](Cc1cccc(F)c1)[C@H](O)CN[C@H]1CC2(CCC2)Oc2c1cc(C=C(C)C)cc2-n1ccnc1 [compound 589] | 0.2 | – | – | – | 217 | 27 | – | – | IC50 [1, 13]: 0.257 µM; IC50 [2, 14]: 0.105 µM; IC50 ([6]; 2D6 IC50, CYP2D6 inhibition): 0.2 µM
CC(=O)N[C@@H](Cc1ccc2c(c1)OCO2)[C@H](O)CN[C@H]1CC2(CCC2)Oc2ncc(C(F)(F)C(C)(C)C)cc21 [compound 574] | 0.2 | 146 | 46 | 3.5 | – | – | 0.22 | 0.606 | –
COCC(=O)N[C@@H](Cc1ccc(F)cc1)[C@H](O)CN[C@H]1CC2(CCC2)Oc2c(-c3ccncc3)cc(CC(C)(C)C)cc21 [compound 562] | 0.1 | 60 | 24 | 3.6 | – | – | 0.027 | 0.021 | –
CC(C)(C)Cc1cnc2c(c1)[C@@H](NC[C@@H](O)[C@H](Cc1ccc3c(c1)OCO3)NC(=O)C1CCS(=O)(=O)C1)CC1(CCC1)O2 (stereo partly drawn) [compound 779] | 0.1 | 66 | 36 | 3.9 | – | – | – | – | IC50 [1, 7]: 0.057 µM; IC50 [2, 8]: 0.075 µM
CC(C)Cc1cnc2c(c1)[C@@H](NC[C@@H](O)[C@H](Cc1ccc3c(c1)OCO3)NC(=O)[C@H]1CCCO1)CC1(CCC1)O2 [compound 551] | 0.1 | 112 | 33 | 5.7 | – | – | 0.044 | 0.367 | –
COCC(=O)N[C@@H](Cc1cccc(F)c1)[C@H](O)CN[C@H]1CC2(CCC2)Oc2c1cc(CC(C)(C)C)nc2-c1ccncc1 [compound 531] | 0.2 | 159 | 40 | 1.3 | – | – | 0.013 | 0.029 | –
COCC(=O)N[C@@H](Cc1ccc2c(c1)OCO2)[C@H](O)CN[C@H]1CC2(CCC2)Oc2cnc(CC(C)C)cc21 [compound 664] | ≤ 0.03 | – | – | – | 276 | 193 | – | – | IC50 [1, 13]: 0.118 µM; IC50 [2, 14]: 0.192 µM; IC50 ([6]; 2D6 IC50, CYP2D6 inhibition): 2.3 µM
COCC(=O)N[C@@H](Cc1cc(F)cc(F)c1)[C@H](O)CN[C@H]1CC2(CCC2)Oc2c1cc(CC(C)(C)C)nc2Nc1ccncc1 [compound 571] | 0.1 | 193 | 142 | 2.3 | – | – | 0.053 | 0.003 | –

Source: patent US8163909B2, “Substituted hydroxyethyl amine compounds as beta-secretase modulators and methods of use” (Amgen Inc., priority 2007, dated 2012)
